The target in this experiment is T1, ubiquitin-specific protease 28 (USP28) (Homo sapiens, UniProt Q96RU2).
T1 construct: endogenous, NCI-H520 cell extracts and intact cells
T1 sequence (Q96RU2 1-1077): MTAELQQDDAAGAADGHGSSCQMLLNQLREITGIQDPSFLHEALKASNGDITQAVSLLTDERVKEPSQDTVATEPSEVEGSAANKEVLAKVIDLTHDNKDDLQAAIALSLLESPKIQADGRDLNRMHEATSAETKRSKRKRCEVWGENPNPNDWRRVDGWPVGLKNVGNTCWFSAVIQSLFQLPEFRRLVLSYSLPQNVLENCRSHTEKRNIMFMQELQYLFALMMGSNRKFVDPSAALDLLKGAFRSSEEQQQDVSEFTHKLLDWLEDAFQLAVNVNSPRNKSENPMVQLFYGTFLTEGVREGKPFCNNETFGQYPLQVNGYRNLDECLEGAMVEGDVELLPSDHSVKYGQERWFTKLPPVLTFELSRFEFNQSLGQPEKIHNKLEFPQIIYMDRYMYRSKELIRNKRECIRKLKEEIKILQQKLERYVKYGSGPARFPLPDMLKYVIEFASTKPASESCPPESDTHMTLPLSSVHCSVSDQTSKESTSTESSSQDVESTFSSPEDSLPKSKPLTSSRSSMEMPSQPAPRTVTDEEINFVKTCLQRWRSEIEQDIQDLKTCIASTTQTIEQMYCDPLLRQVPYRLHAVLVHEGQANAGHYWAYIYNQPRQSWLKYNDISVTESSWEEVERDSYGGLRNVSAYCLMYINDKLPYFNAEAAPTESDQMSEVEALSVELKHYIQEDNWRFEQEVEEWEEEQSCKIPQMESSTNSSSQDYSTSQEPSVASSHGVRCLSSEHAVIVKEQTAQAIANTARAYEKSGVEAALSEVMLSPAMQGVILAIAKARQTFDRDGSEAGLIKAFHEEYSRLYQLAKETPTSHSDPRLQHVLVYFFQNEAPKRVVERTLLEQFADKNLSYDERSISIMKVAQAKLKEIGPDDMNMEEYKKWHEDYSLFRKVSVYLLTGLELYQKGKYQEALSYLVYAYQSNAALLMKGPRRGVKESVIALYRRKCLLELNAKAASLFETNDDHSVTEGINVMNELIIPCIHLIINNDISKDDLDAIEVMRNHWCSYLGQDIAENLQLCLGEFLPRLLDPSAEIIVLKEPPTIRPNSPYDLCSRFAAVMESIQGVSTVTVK
Put plainly: competition with HA-UbPA activity-based probe labelling (Western blot) in NCI-H520 extract and cells; ABPP mass spectrometry. It counts as biochemical. (In general: In western blotting, separated proteins are transferred to a membrane and probed.)

Structures are written as SMILES.

For the compound `Cc1ccc2c(N)c(C(=O)N[C@H]3CCc4cc(N5CC6CCC(C5)N6)ccc4C3)sc2n1` [FT206], the EC50 (in general, the midpoint of the concentration-response curve) was in the range of 300 to 1000 nM.

The values are drawn from article PMC8553340, “USP28 deletion and small-molecule inhibition destabilizes c-MYC and elicits regression of squamous cell lung carcinoma” (eLife, 2021).
